Values quoted from earlier work as cited in publication PMC10705946, “^225Ac-iPSMA-RGD for Alpha-Therapy Dual Targeting of Stromal/Tumor Cell PSMA and Integrins” (International Journal of Molecular Sciences, 2023).
Ends that are not written are not given here.

Test system: glioma cells
Design: method as in PMID 29611298
Conditions: after 24 h of treatment, cells overexpressing the substance P receptor; cited from earlier work

For “^225Ac-labeled substance P: ^225Ac-labeled ligand of the neurokinin-1 receptor (RPKPQQFFGLM; ends and bridges not checked; also: 225Ac radiolabel, attachment not given here; UniProt P20366 58-68, looked up)”, the “Increase of apoptotic cells” value is given as 25%.
